Measured values published in patent US8664221B2 (Santen Pharmaceutical Co., Ltd., priority 2008, dated 2014).

Legend:
[1] = test system: choroidal neovascularization (CNV) model in rats; assay: Laser induced choroidal neovascularization model; assay type: in vivo; details: Brown Norway male rats; 1% (w/v) eye drops four times a day or 20 mg/mL subconjunctival injection (route not given); fluorescein angiography 7 days after laser; mean of 7-8 eyes
Procedure: The choroidal neovascularization (CNV) model in rats is known as one of the popular methods for evaluating the CNV inhibitory effect of drugs. This method is reported in Graefe's Arch. Cli. Exp. Ophthalmol., 235, 313-319 (1997). According to this method, the CNV examinations were performed to evaluate the CNV inhibitory effect of test compounds by comparing the incidence rates of CNV in vehicle group (control group) with test compound-treated groups.
For eye drop administration, a 1% (w/v) test compound suspension was prepared by adding 0.5% polysorbate 80/saline to the test compound. For subconjunctival injection, a 20 mg/mL test compound suspension was prepared by adding 0.5% hydrogenated castor oil/saline to the test compound.
1) Brown Norway male rats (7-8 weeks) were anesthetized with intramuscular injection (1 mL/kg) of the mixed solution (5% ketamine HCl:2% xylazine HCl=7:1).
2) After mydriasis using tropicamide phenylephrine hydrochloride eye drops (trade name Mydrin P), laser photocoagulation of bruch's membrane in rats was performed with krypton laser photocoagulation machine. Laser irradiation was performed at 8 points per eye avoiding thick retinal blood vessels in ocular fundus and focusing on the depth of retina. The conditions were 100 μm spot size, 100 mW power, 0.1 second duration.
3) After laser photocoagulation, photographs of ocular fundus were taken and the laser photocoagulation (laser irradiation) points were confirmed.
1) In case of eye drops administration, a test compound suspension was administrated four times a day from laser irradiation day (the 1st day) to the 8th day. In case of subconjunctival injection, a 50 μL test compound suspension was injected into conjunctivae just after laser irradiation.
2) In vehicle group (control group), 0.5% polysorbate 80/saline or 0.5% hydrogenated castor oil/saline was used instead of a test compound suspension. And the test was performed according to the method 1).
1) 7 days after laser irradiation, 0.1 mL of 10% fluorescein was injected into rat tail vein and fluorescein angiography was performed.
2) When the fluorescent leakage was not detected in the fluorescent angiography, the spot was judged to be a negative spot. When the fluorescent leakage was detected, the spot was judged to be a positive spot. When the fluorescent leakage was detected as a little leakage, two spots were counted as one positive spot.
3) The neovascular incidence rate was calculated according to the equation 1. According to the equation 2, the ratio of neovascular incidence rate in test compound group to vehicle group was calculated. Neovascular incidence rate (%)=(Positive spots/all spots)×100 (Equation 1) Angiogenic inhibition ratio in test compound group (%)=(1−Ax/Ao)×100 (Equation 2)
Ao: Neovascular incidence rate in vehicle group (control group)
Ax: Neovascular incidence rate in test compound group

[2] = test system: carrageenan-induced paw edema model in rats; assay: Carrageenan-induced paw edema model; assay type: in vivo; details: female Lewis rat; 10 mg/kg oral, 30 minutes before carrageenan; paw volume 3 hr after injection; read-out: Inhibition ratio of paw edema (%)
Procedure: The inhibitory effect for paw edema using carrageenan-induced paw edema model in rats is known as one of the general methods for testing the inhibitory effect on inflammation on the joint and the like. Therefore, the inhibitory effect of the present compound for paw edema was carried out, the inhibition rate of paw edema was calculated, and then the anti-inflammatory effect of the present compound was evaluated based on the rate. The concrete method of the test is described below.
A 2 mg/mL test compound suspension was prepared by adding 1% methyl cellulose (base) to the test compound.
1) The weight and right hind paw volume of female Lewis rat (8˜10 weeks) were measured before drug administration.
2) The test compound suspension was administered at 10 mg/kg to the test compound group. Meanwhile, 1% methyl cellulose was administered orally at 5 mL/kg to the sham-operation group and vehicle group (control group).
3) After 30 minutes from oral administration, 0.1 mL of a 1% w/v carrageenan/distilled water solution was subcutaneously injected into right foot pad. 0.1 mL of distilled water was subcutaneously injected for sham-operation group.
4) The right hind paw volume was measured 3 hr after injection of carrageenan or distilled water.
(Formulation Concerning Estimation of Drug Activity) The increase ratio of paw volume (%)=100×(right hind paw volume 3 hr after injection of carrageenan or distilled water (mL)−right hind paw volume before the test compound administration (mL))/right hind paw volume before the test compound administration (mL) (Calculation Equation 1) The inhibition ratio of paw edema (%)=100−100×(the increase ratio of paw volume of each test compound group (%)−the increase ratio of paw volume of sham-operation group (%))/(the increase of paw volume of vehicle group (%)−the increase of paw volume of sham-operation group (%)) (Calculation Equation 2) (Test Results and Discussion)

[3] = test system: IL-6 production induced by lipopolysaccharide (LPS) in human corneal epithelial cells (HCE-T); assay: Inhibition of LPS-induced IL-6 production in human corneal epithelial cells (GR agonist activity); assay type: cell-based; details: Corneal epithelial cell, 10 μL of 100 μM test compound solution per well, 4 hours incubation, efficacy relative to DEX
Procedure: In order to evaluate a GR agonist activity of the present compound, the inhibitory effects on the IL-6 production induced by lipopolysaccharide (LPS) in human corneal epithelial cells. IL-6 levels in the conditioned medium were measured using the HTRF human IL-6 Kit (boehringer-Ingelheim, Cat No. 62IL6PEB), and the procedure was carried out according to the protocol attached to the kit. Hereinafter, the specific method will be described.
LPS solution: After LPS was dissolved in phosphate buffer solution (hereinafter referred to as PBS(−)), the resulting solution was diluted with 10% FBS-DMEM/F12 medium, whereby a 1 μg/mL LPS solution was prepared.
After a test compound was dissolved in dimethylsulfoxide (hereinafter referred to as DMSO), the resulting solution was diluted with 10% FBS-DMEM/F12 medium, whereby a 100 μM test compound solution was prepared. A 100 μM DEX solution was prepared by the same method, and the inhibitory ratio of IL-6 production of DEX was evaluated to use for calculating efficacy (% DEX).
Used cell: SV40-immortalized human corneal epithelial cells (HCE-T) (RIKEN)
1) HCE-T cells were harvested, and seeded at 2.0×10^4 cells/0.1 mL/well in a 96-well plate.
2) After incubation overnight, the medium was removed and a 80 μL of new 10% FBS-DMEM/Ham's F12 medium was added into each well.
3) A 10 μL of test compounds solution was added into each well.
4) A 10 μL of LPS solution was added into each well.
5) As a negative control, a 10 μL of 10% FBS-DMEM/Ham's F12 medium was added into each well instead of a test compound solution and a LPS solution.
6) As a positive control, a 10 μL of 10% FBS-DMEM/Ham's F12 medium containing 1% DMSO was added into each well instead of a test compound solution.
7) After 4 hours incubation, supernatants were collected and IL-6 levels in the supernatants were quantitated using the HTRF human IL-6 Kit.
8) The inhibition ratio of IL-6 production (%) was calculated according to the following equation.
The inhibition ratio of IL-6 production (%) was calculated according to the following equation. The inhibition ratio of IL-6 production (%)=100×{1−(IL-6 level in each group−mean value of IL-6 level in negative control)/(mean value of IL-6 level in positive control−mean value of IL-6 level in negative control)} (%)
Furthermore, the inhibition ratio of IL-6 production (efficacy (% DEX)) was also calculated according to the following equation. Efficacy(% DEX)=100×{(mean value of IL-6 inhibition in compound-treated group)/(mean value of IL-6 inhibition in DEX-treated group)} (%) (Results and Discussion)

[4] = test system: allergic conjunctivitis model in mice; assay: Inhibitory effect on vascular hyper-permeability in allergic conjunctivitis model; assay type: in vivo; details: male BALB/c mice, ovalbumin-sensitized; 1% (W/V) suspension instilled 15 min, 1 hr and 3 hrs before ovalbumin; Evans blue dye leakage; mean of 6 eyes
Procedure: In order to evaluate anti-allergic effect of the present compound, the inhibitory effect on the vascular hyper-permeability in allergic conjunctivitis model in mice was examined. This effect was calculated based on dye leakages of vehicle-treated group (control group) and test compound-treated group.
By adding 0.5% polysorbate 80/saline to the test compound, a 1% (W/V) test compound suspension was prepared.
1) Ovalbumin absorbed on aluminum hydroxide gel was dissolved in saline (20 μg ovalbumin/mL), and male BALB/c mice, 6 weeks old, were actively sensitized to the antigen by intraperitoneal injections of 500 μL of it.
2) On the 6th day from sensitization, sensitized mice were boosted by additional intraperitoneal injections of 500 μL ovalbumin absorbed on aluminum hydroxide gel (20 μg ovalbumin/mL).
3) On the 11th day, 12th day, 13th day, 14th day and 15th day from the first sensitization, allergic conjunctivitis were induced by instillations to the right eyes of the mice of […] of 50% glycerol solution containing 15% (W/V) ovalbumin.
4) […] of test compound suspension per eye was instilled to the right eye of the above mice 15 min, 1 hr and 3 hrs before ovalbumin instillation (three times) on the 15th day from sensitization. In vehicle-treated group (control group), the mice were instilled with 0.5% polysorbate 80/saline in substitution for test compound suspension.
5) Just before ovalbumin instillation on the 15th day from sensitization, all animals received a tail intravenous injection of 0.1% Evans blue dye. The right periocular tissues of the mice, which were the leaked parts of dye, were collected 30 min after ovalbumin instillation. The dye was extracted from the tissues with the dye extraction liquid. Then the absorbance of the dye extract was measured. The dye leakage was calculated from the absorbance value, and the inhibition ratio of the vascular hyper-permeability of test compound-treated group was calculated according to calculation equation 1. The inhibition ratio of the vascular hyper-permeability of test compound-treated group (%)=(1−Ax/Ao)×100 (Calculation Equation 1) • Ao: Dye leakage in vehicle-treated group (control group) • Ax: Dye leakage in test compound-treated group (Test Results and Discussion)

## COc1ccccc1NCc1c(-c2ccc(OS(=O)(=O)C3CC3)cc2OC)ccc2c1N(C)C(=O)C(C)(C)N2 [Compound No. 2-2, 7-(4-Cyclopropylsulfonyloxy-2-methoxyphenyl)-8-(2-methoxy-phenylaminomethyl)-1,3,3-trimethyl-3,4-dihydro-1H-quinoxalin-2-one]
[1]
  Angiogenic inhibition ratio (%): 41%
[2]
  inhibition in vivo at 10 mg/kg: 51%
[3]
  Emax: 86%

## COc1cc(OS(C)(=O)=O)ccc1-c1ccc2c(c1COc1cc(F)ccc1C)N(C)C(=O)C(C)(C)N2 [Compound No. 1-1, 8-(5-Fluoro-2-methylphenoxymethyl)-7-(2-methoxy-4-methylsulfonyloxyphenyl)-1,3,3-trimethyl-3,4-dihydro-1H-quinoxalin-2-one]
[1]
  Angiogenic inhibition ratio (%): 31%
[3]
  Emax: 92%
[4]
  The inhibition ratio of the vascular hyper-permeability (%): 36%

## COc1cc(OS(=O)(=O)C2CC2)ccc1-c1ccc2c(c1COc1cc(F)ccc1C)N(C)C(=O)C(C)(C)N2 [Compound No. 1-13, 7-(4-Cyclopropylsulfonyloxy-2-methoxyphenyl)-8-(5-fluoro-2-methyl-phenoxymethyl)-1,3,3-trimethyl-3,4-dihydro-1H-quinoxalin-2-one]
[1]
  Angiogenic inhibition ratio (%): 38%
[2]
  inhibition in vivo at 10 mg/kg: 67%
[3]
  Emax: 100%

## COc1cc(OS(=O)(=O)C2CCCC2)ccc1-c1ccc2c(c1CNc1cc(F)ccc1C)N(C)C(=O)C(C)(C)N2 [Compound No. 1-43, 7-(4-cyclopentylsulfonyloxy-2-methoxyphenyl)-8-(5-fluoro-2-methyl-phenylaminomethyl)-1,3,3-trimethyl-3,4-dihydro-1H-quinoxalin-2-one]
[1]
  Angiogenic inhibition ratio (%): 18%
[3]
  Emax: 82%

## CCCS(=O)(=O)Oc1ccc(-c2ccc3c(c2COc2cc([N+](=O)[O-])ccc2C)N(C)C(=O)C(C)(C)N3)c(OC)c1 [Compound No. 1-38, 7-(2-Methoxy-4-propylsulfonyloxyphenyl)-8-(2-methyl-5-nitrophenoxy-methyl)-1,3,3-trimethyl-3,4-dihydro-1H-quinoxalin-2-one]
[1]
  Angiogenic inhibition ratio (%): 33%
[2]
  inhibition in vivo at 10 mg/kg: 50%
[3]
  Emax: 94%
